Reference: patent US8637670B2, “Imidazo [4,5-C]quinoline derivatives and their use in the treatment of tumors and/or inflammation” (Piramal Enterprises Limited, priority 2009, dated 2014)

Legend:
[1] = target: T1, PI3Kα kinase (Homo sapiens, UniProt P42336); experiment: PI3Kα assay (32P incorporation into phosphatidylinositol, TLC densitometry); type: biochemical; conditions: for inhibition at 0.1 µM: At 100 nM; for inhibition at 1 µM: At 1000 nM
T1 construct: purchased Millipore, USA
Procedure, shortened: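 Human PI3Kα (20 ng) with 12.5 μg phosphatidylinositol, 10 μM ATP plus [γ-32P]ATP in 10 mM Hepes pH 7.5, 50 mM MgCl2; 20 min at 30° C. Lipids extracted in MeOH/chloroform, resolved by silica TLC, and 32P-labelled PI quantified by autoradiography densitometry.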

[2] = tested on: HCT116; experiment: Cytotoxicity, propidium iodide assay, HCT116; type: cell-based; conditions: Homo sapiens, HCT-116; Colon, HCT116, 48 hours treatment; read-out: IC50, C4a (HCT116)
Procedure, shortened: (§1)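 3000 cells/well; 18-24 h attachment at 37° C./5% CO2; compound 48 h; PBS wash; 7 μg/ml PI; freeze −70° C. ≥24 h; thaw to RT, fluorescence read; IC50 from % viability vs untreated.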

[3] = tested on: BxPC3; experiment: Cytotoxicity, propidium iodide assay, BxPC3; type: cell-based; conditions: Homo sapiens, BXPC-3; Pancreatic, BxPC3, 48 hours treatment; read-out: IC50, C5c (BxPC3)
Method: (§2) The assay was designed as in the reference, Anticancer Drugs, 2002, 13, 1-8, the disclosure of which is incorporated by reference for the teaching of the assay.
(§3) Cells from cell lines as mentioned in the table given below were seeded at a density of 3000 cells/well in a white opaque 96-well plate. Following incubation at 37° C./5% CO2 for a period of 18-24 hours, the cells were treated with various concentrations (stock solution was prepared in DMSO and subsequent dilutions were made in media as per ATCC guidelines) of the compounds of Example 1-40 was for a period of 48 hours. At the end of treatment, the spent culture medium was discarded, the cells were washed with 1×PBS and 200 μl of 7 μg/ml propidium iodide was added to each well. The plates were frozen at −70° C. for at least 24 hours. For analysis, the plates were brought to RT, allowed to thaw and were read in PoleStar fluorimeter with the fluorescence setting. The percentage of viable cells in the non-treated set of wells was considered to be 100 and the percentage viability following treatment was calculated accordingly. IC50 values were calculated from graphs plotted using these percentages. Table 4 depicts the IC50 values of compounds of Example 1-40 in individual cell lines.
(§4) The abbreviations for the Cell Lines as used in Table 4 are: […]

[4] = tested on: PANC 1; experiment: Cytotoxicity, propidium iodide assay, PANC 1; type: cell-based; conditions: Homo sapiens; Pancreatic, PANC 1, 48 hours treatment; read-out: IC50, C5a (PANC 1)
Method: as §2, §3, §4

[5] = tested on: U 87 MG; experiment: Cytotoxicity, propidium iodide assay, U 87 MG; type: cell-based; conditions: Homo sapiens, Glioblastoma, 48 hours treatment, read-out: IC50, C7b (U 87 MG)
Method: as §2, §3, §4

[6] = tested on: PC3; experiment: Cytotoxicity, propidium iodide assay, PC3; type: cell-based; conditions: Homo sapiens, PC-3; Prostate, PC3, 48 hours treatment; read-out: IC50, C2a (PC3)
Procedure, shortened: as §1

[7] = tested on: T47D; experiment: Cytotoxicity, propidium iodide assay, T47D; type: cell-based; conditions: Homo sapiens, Breast, 48 hours treatment, read-out: IC50, C6e (T47D)
Method: as §2, §3, §4

[8] = tested on: MCF7; experiment: Cytotoxicity, propidium iodide assay, MCF7; type: cell-based; conditions: Homo sapiens; Breast, MCF7, 48 hours treatment; read-out: IC50, C6c (MCF7)
Method: as §2, §3, §4

[9] = tested on: BT 549; experiment: Cytotoxicity, propidium iodide assay, BT 549; type: cell-based; conditions: Homo sapiens; Breast, BT 549, 48 hours treatment; read-out: IC50, C6d (BT 549)
Method: as §2, §3, §4

[10] = tested on: MDA MB 231; experiment: Cytotoxicity, propidium iodide assay, MDA MB 231; type: cell-based; conditions: Homo sapiens; Breast, MDA MB 231, 48 hours treatment; read-out: IC50, C6a (MDA MB 231)
Method: as §2, §3, §4

T1 sequence (P42336 whole entry): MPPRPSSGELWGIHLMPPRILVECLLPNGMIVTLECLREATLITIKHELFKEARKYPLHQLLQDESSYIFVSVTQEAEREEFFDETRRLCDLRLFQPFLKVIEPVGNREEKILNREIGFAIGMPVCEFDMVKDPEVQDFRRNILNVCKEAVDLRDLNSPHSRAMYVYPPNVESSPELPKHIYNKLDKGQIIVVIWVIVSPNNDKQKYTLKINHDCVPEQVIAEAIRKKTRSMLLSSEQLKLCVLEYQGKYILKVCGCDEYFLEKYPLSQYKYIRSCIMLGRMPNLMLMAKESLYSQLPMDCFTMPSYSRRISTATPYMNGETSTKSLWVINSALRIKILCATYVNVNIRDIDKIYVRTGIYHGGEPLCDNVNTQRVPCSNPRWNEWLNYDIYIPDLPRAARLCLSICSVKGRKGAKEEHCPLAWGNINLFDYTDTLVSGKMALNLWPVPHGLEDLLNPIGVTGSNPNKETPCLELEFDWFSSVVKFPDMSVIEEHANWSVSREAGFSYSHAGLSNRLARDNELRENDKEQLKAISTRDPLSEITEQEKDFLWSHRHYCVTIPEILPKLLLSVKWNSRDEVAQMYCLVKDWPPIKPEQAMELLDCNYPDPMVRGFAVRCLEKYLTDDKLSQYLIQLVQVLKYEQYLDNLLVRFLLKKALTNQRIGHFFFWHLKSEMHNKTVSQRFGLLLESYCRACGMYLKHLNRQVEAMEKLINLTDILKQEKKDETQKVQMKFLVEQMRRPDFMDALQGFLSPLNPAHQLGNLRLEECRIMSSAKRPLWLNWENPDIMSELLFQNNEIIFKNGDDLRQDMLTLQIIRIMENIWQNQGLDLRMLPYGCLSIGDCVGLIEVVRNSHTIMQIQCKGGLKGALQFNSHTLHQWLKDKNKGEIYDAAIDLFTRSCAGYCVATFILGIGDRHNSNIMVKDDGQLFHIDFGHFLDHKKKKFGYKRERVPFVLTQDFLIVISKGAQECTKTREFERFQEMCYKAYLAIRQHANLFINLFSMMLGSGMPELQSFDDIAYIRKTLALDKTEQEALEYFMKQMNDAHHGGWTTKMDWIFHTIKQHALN
T1 sequence (P27986 whole entry partner): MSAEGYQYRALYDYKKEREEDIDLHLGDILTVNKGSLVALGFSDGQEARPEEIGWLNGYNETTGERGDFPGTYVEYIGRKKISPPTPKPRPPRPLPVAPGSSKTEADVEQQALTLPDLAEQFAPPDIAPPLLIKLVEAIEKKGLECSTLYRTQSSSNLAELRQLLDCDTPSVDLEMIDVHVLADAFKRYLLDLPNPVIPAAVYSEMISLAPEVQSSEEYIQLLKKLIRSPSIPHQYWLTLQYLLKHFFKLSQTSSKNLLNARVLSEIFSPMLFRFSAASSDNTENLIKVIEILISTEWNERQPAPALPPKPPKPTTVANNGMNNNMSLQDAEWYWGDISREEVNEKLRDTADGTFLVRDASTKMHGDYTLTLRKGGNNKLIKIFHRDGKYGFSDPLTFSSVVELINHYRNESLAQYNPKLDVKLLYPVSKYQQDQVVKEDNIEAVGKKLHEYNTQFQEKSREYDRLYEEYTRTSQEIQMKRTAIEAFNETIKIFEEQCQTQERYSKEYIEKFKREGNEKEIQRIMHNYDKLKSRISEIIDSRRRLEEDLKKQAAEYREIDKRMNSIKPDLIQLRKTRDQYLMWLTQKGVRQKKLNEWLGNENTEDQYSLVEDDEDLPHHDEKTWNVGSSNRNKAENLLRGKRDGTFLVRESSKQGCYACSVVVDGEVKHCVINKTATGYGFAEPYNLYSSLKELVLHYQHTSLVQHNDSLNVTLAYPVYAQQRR

inhibition at 0.1 µM [1] [%]	inhibition at 1 µM [1] [%]	SMILES	IC50 [2] [nM]	IC50 [3] [nM]	IC50 [4] [nM]	IC50 [5] [nM]	IC50 [6] [nM]	IC50 [7] [nM]	IC50 [8] [nM]	IC50 [9] [nM]	IC50 [10] [nM]
10 to 50		Cc1cccc(S(=O)(=O)n2c(=O)n(-c3ccc(C(C)(C)C#N)cc3)c3c4cc(Br)ccc4ncc32)c1 [Example 3, 2-(4-(8-Bromo-2-oxo-3-(m-tolylsulfonyl)-2,3-dihydro-1H-imidazo[4,5-c]quinolin-1-yl)phenyl)-2-methylpropanenitrile]	1000 to 3000	≤ 1000	1000 to 3000	1000 to 3000	≤ 1000				
	10 to 50	C/C=C/C(=O)n1c(=O)n(-c2ccc(C(C)(C)C#N)cc2)c2c3cc(Br)ccc3ncc21 [Example 27, (E)-2-(4-(8-Bromo-3-but-2-enoyl-2-oxo-2,3-dihydro-1H-imidazo[4,5-c]quinolin-1-yl)phenyl)-2-methylpropanenitrile]	1000 to 3000		≤ 1000		≤ 1000	≤ 1000	≤ 1000	≤ 1000	≤ 1000
> 50		CC(C)(C#N)c1ccc(-n2c(=O)n(C(=O)c3ccccc3)c3cnc4ccc(Br)cc4c32)cc1 [Example 30, 2-(4-(3-Benzoyl-8-bromo-2-oxo-2,3-dihydro-1H-imidazo[4,5-c]quinolin-1-yl)phenyl)-2-methylpropanenitrile]	≤ 1000	≤ 1000	1000 to 3000		1000 to 3000				
10 to 50		CC(C)(C#N)c1ccc(-n2c(=O)n(C(=O)c3ccccc3)c3cnc4ccc(Cl)cc4c32)cc1 [Example 37, 2-(4-(3-Benzoyl-8-chloro-2-oxo-2,3-dihydro-1H-imidazo[4,5-c]quinolin-1-yl)phenyl)-2-methylpropanenitrile]	> 3000			> 3000	1000 to 3000				
	10 to 50	C/C=C/C(=O)n1c(=O)n(-c2ccc(C(C)(C)C#N)cc2)c2c3cc(Cl)ccc3ncc21 [Example 38, (E)-2-(4-(3-But-2-enoyl-8-chloro-2-oxo-2,3-dihydro-1H-imidazo[4,5-c]quinolin-1-yl)phenyl)-2-methylpropanenitrile]	> 3000		≤ 1000		≤ 1000	≤ 1000	≤ 1000	≤ 1000	≤ 1000
